From US11090304B2 (Amgen Inc., priority 2018, dated 2021)
Read-outs that look alike come from different tables or passages of the source.

Key:
[1] = target: GDP-bound KRAS protein (aa 1-169), containing both G12C and C118A amino acid substitutions (Homo sapiens, UniProt P01116, C118A/G12C); assay: Coupled nucleotide exchange assay (SOS-mediated, AlphaScreen); format: biochemical; details: 5 min compound pre-incubation
[2] = test system: Phosphorylation of ERK1/2 in MIA PaCa-2 cells; assay: Phospho-ERK1/2 MSD assay in MIA PaCa-2 cells; format: cell-based; details: read-out: p-ERK IC50 (2 h; MIA PaCa-2), 2 h compound treatment
Summary of the method: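 Following a 2 or 4 h incubation with titrated compound, cells receive a 10 min pulse of 10 ng/mL EGF. Phospho-ERK1/2 in RIPA lysates is then quantified by MSD immunoassay, and IC50 values come from a four-parameter logistic model.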

Sequence of GDP-bound KRAS protein (aa 1-169), containing both G12C and C118A amino acid substitutions (P01116 1-169 isoform P01116-2 G12C/C118A): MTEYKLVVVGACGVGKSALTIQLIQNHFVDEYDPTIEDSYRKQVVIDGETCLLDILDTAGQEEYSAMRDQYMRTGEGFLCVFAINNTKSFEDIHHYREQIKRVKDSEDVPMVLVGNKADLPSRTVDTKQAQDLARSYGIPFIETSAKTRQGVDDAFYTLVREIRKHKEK

Coupled exchange IC50 (5 min) [1]	IC50 ([2]; Homo sapiens, MIA PaCa-2, 2 h)	IC50 [2]	IC50 ([1]; read-out: Coupled exchange IC50 (5 min))	Compound
0.07 | nda μM	0.089 µM	–	–	C=CC(=O)N1CCN(c2nc(=O)n(-c3c(C)cc(OC)nc3C(C)C)c3nc(-c4ccccc4F)c(Cl)cc23)[C@@H](C)C1 [Example 54-105, 6-chloro-7-(2-fluorophenyl)-1-(6-methoxy-4-methyl-2-(2-propanyl)-3-pyridinyl)-4-((2S)-2-methyl-4-(2-propenoyl)-1-piperazinyl) pyrido[2,3-d]pyrimidin-2(1H)-one]
0.133 | nda μM	0.163 µM	–	–	C=CC(=O)N1CCN(c2nc(=O)n(-c3c(C4CC4)ncnc3C3CC3)c3nc(-c4c(O)cccc4F)c(F)cc23)[C@@H](C)C1 [Example 59-4, 1-(4,6-dicyclopropyl-5-pyrimidinyl)-6-fluoro-7-(2-fluoro-6-hydroxyphenyl)-4-((2S)-2-methyl-4-(2-propenoyl)-1-piperazinyl)pyrido[2,3-d]pyrimidin-2(1H)-one]
0.09 | nda μM	0.07 µM	–	–	C=CC(=O)N1CCN(c2nc(=O)n(-c3c(C(C)C)cccc3N(C)C)c3nc(-c4ccccc4F)c(Cl)cc23)[C@@H](C)C1 [Example 54-104, 6-chloro-1-(2-(dimethyl-amino)-6-(2-propanyl)phenyl)-7-(2-fluorophenyl)-4-((2S)-2-methyl-4-(2-propenoyl)-1-piperazinyl) pyrido[2,3-d]pyrimidin-2(1H)-one]
0.216 | nda μM	0.743 µM	–	–	C=CC(=O)N1CCN(c2nc(=O)n(-c3c(C)ccnc3C(C)C)c3nc(-c4cc(O)ccc4F)c(F)cc23)[C@@H](C)C1 (single isomer, unassigned) [Example 58-5-2]
0.422 | nda μM	0.204 µM	–	–	C=CC(=O)N1CCN(c2nc(=O)n(-c3ncccc3C3CC3)c3nc(-c4ccccc4F)c(Cl)cc23)[C@@H](C)C1 [Example 60-1, 6-Chloro-1-(3-cyclopropyl-2-pyridinyl)-7-(2-fluorophenyl)-4-((2S)-2-methyl-4-(2-propenoyl)-1-piperazinyl)pyrido[2,3-d]pyrimidin-2(1H)-one]
0.326 | nda μM	0.171 µM	–	–	C=CC(=O)N1CCN(c2nc(=O)n(-c3ccccc3C(C)C)c3nc(-c4cc(F)ccc4O)c(Cl)cc23)[C@@H](C)C1 [Example 54-78, 6-chloro-7-(5-fluoro-2-hydroxyphenyl)-4-((2S)-2-methyl-4-(2-propenoyl)-1-piperazinyl)-1-(2-(2-propanyl)phenyl)pyrido [2,3-d]pyrimidin-2(1H)-one]
0.193 | nda μM	0.593 µM	–	–	C=CC(=O)N1CCN(c2nc(=O)n(-c3ncc(C#N)cc3CC)c3nc(-c4c(O)cccc4F)c(Cl)cc23)[C@@H](C)C1 [Example 54-53, 6-(6-chloro~7-(2-fluoro-6-hydroxyphenyl)-4-((2S)-2-methyl-4-(2-propenoyl)-1-piperazinyl)-2-oxopyrido[2,3-d]pyrimidin-1(2H)-yl)-5-ethyl-3-pyridine-carbonitrile]
0.676 | nda μM	0.363 µM	–	–	C=CC(=O)N1CCN(c2nc(=O)n(-c3ccccc3C(C)C)c3nc(-c4cccnc4N)c(Cl)cc23)[C@@H](C)C1 [Example 54-96, 7-(2-amino-3-pyridinyl)-6-chloro-4-((2S)-2-methyl-4-(2-propenoyl)-1-piperazinyl)-1-(2-(2-propanyl)phenyl)pyrido [2,3-d]pyrimidin-2(1H)-one]
0.06 | nda μM	0.281 µM	–	–	C=CC(=O)N1CCN(c2nc(=O)n(-c3c(C)ccnc3C(C)C)c3nc(-c4cc(C5CC5)ccc4F)c(Cl)cc23)[C@@H](C)C1 (atropisomer, axis not shown; (M)) [Example 73-9, (M)-6-chloro-7-(5-cyclopropyl-2-fluorophenyl)-1-(4-methyl-2-(2-propanyl)-3-pyridinyl)-4-((2S)-2-methyl-4-(2-propenoyl)-1-piperazinyl)pyrido[2,3-d]pyrimidin-2(1H)-one]
0.057 | nda μM	0.08 µM	–	–	C=CC(=O)N1CCN(c2nc(=O)n(-c3c(C)nc(C)nc3C(C)C)c3nc(-c4c(O)cccc4F)c(Cl)cc23)[C@@H](C)C1 [Example 55-4, 6-chloro-1-(2,4-dimethyl-6-(2-propanyl)-5-pyrimidinyl)-7-(2-fluoro-6-hydroxyphenyl)-4-((2S)-2-methyl-4-(2-propenoyl)-1-piperazinyl)pyrido[2,3-d]pyrimidin-2(1H)-one]
0.572 | nda μM	0.57 µM	–	–	C=CC(=O)N1CCN(c2nc(=O)n(-c3ccccc3C(C)(C)C)c3nc(-c4c(O)cccc4F)c(F)cc23)[C@@H](C)C1 (single isomer, unassigned) [Example 58-1-2]
0.026 | nda μM	0.01 µM	–	–	C=CC(=O)N1C[C@H](C)N(c2nc(=O)n(-c3c(C)ccnc3C(C)C)c3nc(-c4ccccc4F)c(Cl)cc23)[C@@H](C)C1 (single isomer, unassigned) [Example 78-8]
0.084 | nda μM	0.222 µM	–	–	C=CC(=O)N1CCN(c2nc(=O)n(-c3cccnc3C(C)(C)C)c3nc(-c4ccccc4F)c(Cl)cc23)[C@@H](C)C1 [Example 54-112, 6-chloro-7-(2-fluorophenyl)-1-(2-(2-methyl-2-propanyl)-3-pyridinyl)-4-((2S)-2-methyl-4-(2-propenoyl)-1-piperazinyl) pyrido[2,3-d]pyrimidin-2(1H)-one]
0.419 | nda μM	0.853 µM	–	–	C=CC(=O)N1CCN(c2nc(=O)n(-c3ccccc3C(C)C)c3nc(C4=CCCCC4)c(Cl)cc23)[C@@H](C)C1 (single isomer, unassigned) [Example 54-75-1]
0.081 | nda μM	0.055 µM	–	–	C=CC(=O)N1C[C@H](C)N(c2nc(=O)n(-c3c(C)ccnc3C(C)C)c3nc(-c4ccccc4F)c(F)cc23)[C@@H](C)C1 (atropisomer, axis not shown; (M)) [Example 72-14, (M)-4-((2S,6S)-2,6-dimethyl-4-(2-propenoyl)-1-piperazinyl)-6-fluoro-7-(2-fluorophenyl)-1-(4-methyl-2-(2-propanyl)-3-pyridinyl)pyrido[2,3-d]pyrimidin-2(1H)-one]
0.021 | nda μM	–	0.033 µM	–	C=CC(=O)N1CCN(c2nc(=O)n(-c3ccccc3C(C)C)c3nc(-c4cc(O)cc(Cl)c4Cl)c(Cl)cc23)[C@@H](C)C1 (single isomer, unassigned) [Example 54-91-1]
0.118 | nda μM	0.152 µM	–	–	C=CC(=O)N1CCN(c2nc(=O)n(-c3ccccc3C(C)C)c3nc(-c4ccccc4F)c(C)cc23)[C@@H](C)C1 (single isomer, unassigned) [Example 74-1-2]
0.107 | nda μM	10 µM	–	–	C=CC(=O)N1CCN(c2nc(=O)n(-c3c(C(=O)O)cccc3C(C)C)c3nc(-c4ccccc4F)c(Cl)cc23)[C@@H](C)C1 [Example 132, 2-(6-Chloro-7-(2-fluorophenyl)-4-((2S)-2-methyl-4-(2-propenoyl)-1-piperazinyl)-2-oxopyrido[2,3-d]pyrimidin-1(2H)-yl)-3-(2-propanyl)benzoic acid]
0.084 | nda μM	–	0.128 µM	–	C=CC(=O)N1CCN(c2nc(=O)n(-c3c(C)cccc3C(C)C)c3nc(-c4c(O)cccc4Cl)c(F)cc23)[C@@H](C)C1 (single isomer, unassigned) [Example 68-1-1]
0.071 | nda μM	0.247 µM	–	–	C=CC(=O)N1CCN(c2nc(=O)n(-c3ccccc3C(C)C)c3cc(-c4ccccc4F)c(Cl)nc23)[C@@H](C)C1 (single isomer, unassigned) [Example 110-2]
0.208 | nda μM	0.26 µM	–	–	C=CC(=O)N1CCN(c2nc(=O)n(-c3nccnc3C(C)(C)C)c3nc(-c4c(O)cccc4F)c(Cl)cc23)[C@@H](C)C1 [Example 55-23]
0.26 | nda μM	–	0.136 µM	–	C=CC(=O)N1CCN(c2nc(=O)n(-c3c(C)ccnc3C(C)C)c3nc(-c4ccccc4F)c(C)cc23)[C@@H](C)C1 (single isomer, unassigned) [Example 74-2-1]
0.35 | nda μM	0.334 µM	–	–	C=CC(=O)N1CCN(c2nc(=O)n(-c3scnc3CC)c3nc(-c4ccccc4F)c(Cl)cc23)[C@@H](C)C1 [Example 60-21, 6-chloro-1-(4-ethyl-1,3-thiazol-5-yl)-7-(2-fluorophenyl)-4-((2S)-2-methyl-4-(2-propenoyl)-1-piperazinyl)pyrido[2,3-d]pyrimidin-2(1H)-one]
0.136 | nda μM	0.176 µM	–	–	C=CC(=O)N1CCN(c2nc(=O)n(-c3ccccc3C(C)C)c3nc(-c4ccc(F)cc4O)c(Cl)cc23)[C@@H](C)C1 (single isomer, unassigned) [Example 54-77-2]
–	–	0.049 µM	0.048 µM	C=CC(=O)N1C[C@@H](C)N(c2nc(=O)n(-c3c(C)ccnc3C(C)C)c3nc(-c4c(O)cccc4F)c(F)cc23)[C@@H](C)C1 (atropisomer, axis not shown; (M)) [Example 75-1, (M)-4-(cis-2,6-Dimethyl-4-(2-propenoyl)-1-piperazinyl)-6-fluoro-7-(2-fluoro-6-hydroxyphenyl)-1-(4-methyl-2-(2-propanyl)-3-pyridinyl)pyrido[2,3-d]pyrimidin-2(1H)-one]
0.932 | nda μM	0.659 µM	–	–	C=CC(=O)N1CCN(c2nc(=O)n(-c3nccnc3C3CC3)c3nc(-c4c(O)cccc4F)c(F)cc23)[C@@H](C)C1 [Example 59-6, 1-(3-cyclopropyl-2-pyrazinyl)-6-fluoro-7-(2-fluoro-6-hydroxyphenyl)-4-((2S)-2-methyl-4-(2-propenoyl)-1-piperazinyl)pyrido[2,3-d]pyrimidin-2(1H)-one]
